The compounds below were run against T1, human vasopressin V1b receptor (Homo sapiens, UniProt P47901) (assay: Vasopressin V1b receptor binding test). Conditions: membranes of CHO-K1 cells with human V1b receptor, displacement of 1.5 nM 3H-AVP; for compounds with more than one stereogenic center the diastereomer with greater affinity.
T1 construct: expressed in transfected cells; host or cells: CHO-K1 (cell line hV1b_3H2_CHO), membrane preparation
T1 sequence (P47901 1-424): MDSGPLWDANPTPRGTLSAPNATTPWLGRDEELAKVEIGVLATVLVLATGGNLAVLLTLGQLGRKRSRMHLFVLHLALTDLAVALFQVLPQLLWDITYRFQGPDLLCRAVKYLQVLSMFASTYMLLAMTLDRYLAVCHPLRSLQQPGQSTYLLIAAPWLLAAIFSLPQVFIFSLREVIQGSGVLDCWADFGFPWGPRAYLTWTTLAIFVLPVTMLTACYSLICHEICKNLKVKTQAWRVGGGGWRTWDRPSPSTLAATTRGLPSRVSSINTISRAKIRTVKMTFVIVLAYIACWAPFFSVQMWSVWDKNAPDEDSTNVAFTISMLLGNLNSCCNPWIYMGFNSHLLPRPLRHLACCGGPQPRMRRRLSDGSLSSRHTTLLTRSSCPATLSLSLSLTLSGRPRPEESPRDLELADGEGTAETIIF
Procedure, shortened: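 Affinity constants (Ki) came from nonlinear regression of triplicate scintillation counts after filtration separated bound from free radioligand. Compounds competed at human V1b membranes for 60 min, room temperature, in pH 7.4 tris/MgCl2/BSA buffer with 2% DMSO; 1 μM AVP defined nonspecific binding.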

| Structure (SMILES) | Ki [nM] |
| --- | --- |
| COc1ccc(S(=O)(=O)N2C(=O)C(c3cc(CN4CCN(C)CC4)ccc3OC)(N3CCC[C@H]3c3ncco3)c3cc(C#N)ccc32)cc1 (stereo partly drawn) [Example 56, 5-Cyano-1-(4-methoxybenzenesulfonyl)-3-[2-methoxy-5-(4-methylpiperazin-1-ylmethyl)phenyl]-3-((S)-2-oxazol-2-yl-pyrrolidin-1-yl)-1,3-dihydroindol-2-one] | < 10 |
| COc1ccc(S(=O)(=O)N2C(=O)C(c3cc(CN4CCNCC4)ccc3OC)(N3CCC[C@H]3c3ncco3)c3cc(C#N)ccc32)cc1 (stereo partly drawn) [Example 57, 5-Cyano-1-(4-methoxybenzenesulfonyl)-3-(2-methoxy-5-piperazin-1-ylmethylphenyl)-3-((S)-2-oxazol-2-yl-pyrrolidin-1-yl)-1,3-dihydroindol-2-one] | < 10 |
| COc1ccc(S(=O)(=O)N2C(=O)C(c3cc(CN4CCOCC4)ccc3OC)(N3CCC[C@H]3c3ncco3)c3cc(C#N)ccc32)cc1 (stereo partly drawn) [Example 58, 5-Cyano-1-(4-methoxybenzenesulfonyl)-3-(2-methoxy-5-morpholin-4-ylmethylphenyl)-3-((S)-2-oxazol-2-yl-pyrrolidin-1-yl)-1,3-dihydroindol-2-one] | 10 to 100 |
| COc1ccc(S(=O)(=O)N2C(=O)C(c3cc(CN4CCCC4)ccc3OC)(N3CCC[C@H]3c3ncco3)c3cc(C#N)ccc32)cc1 (stereo partly drawn) [Example 60, 5-Cyano-1-(4-methoxybenzenesulfonyl)-3-(2-methoxy-5-pyrrolidin-1-ylmethylphenyl)-3-((S)-2-oxazol-2-yl-pyrrolidin-1-yl)-1,3-dihydroindol-2-one] | 10 to 100 |
| COc1ccc(S(=O)(=O)N2C(=O)C(c3cc(CN4CCCCC4)ccc3OC)(N3CCC[C@H]3c3ncco3)c3cc(C#N)ccc32)cc1 (stereo partly drawn) [Example 61, 5-Cyano-1-(4-methoxybenzenesulfonyl)-3-(2-methoxy-5-piperidin-1-ylmethylphenyl)-3-((S)-2-oxazol-2-yl-pyrrolidin-1-yl)-1,3-dihydroindol-2-one] | 10 to 100 |
| CNCc1ccc(OC)c(C2(N3CCC[C@H]3c3ncco3)C(=O)N(S(=O)(=O)c3ccc(OC)cc3)c3cc(Cl)c(Cl)cc32)c1 (stereo partly drawn) [Example 63, 5,6-Dichloro-1-(4-methoxybenzenesulfonyl)-3-(2-methoxy-5-methylaminomethylphenyl)-3-((S)-2-oxazol-2-yl-pyrrolidin-1-yl)-1,3-dihydroindol-2-one] | 10 to 100 |
| COc1ccc(S(=O)(=O)N2C(=O)C(c3cc(CN(C)C)ccc3OC)(N3CCC[C@H]3c3ncco3)c3cc(Cl)c(Cl)cc32)cc1 (stereo partly drawn) [Example 64, 5,6-Dichloro-3-(5-dimethylaminomethyl-2-methoxyphenyl)-1-(4-methoxybenzenesulfonyl)-3-((S)-2-oxazol-2-yl-pyrrolidin-1-yl)-1,3-dihydroindol-2-one] | 10 to 100 |
| CCNCc1ccc(OC)c(C2(N3CCC[C@H]3c3ncco3)C(=O)N(S(=O)(=O)c3ccc(OC)cc3)c3cc(Cl)c(Cl)cc32)c1 (stereo partly drawn) [Example 65, 5,6-Dichloro-3-(5-ethylaminomethyl-2-methoxyphenyl)-1-(4-methoxybenzenesulfonyl)-3-((S)-2-oxazol-2-yl-pyrrolidin-1-yl)-1,3-dihydroindol-2-one] | 10 to 100 |
| CCCNCc1ccc(OC)c(C2(N3CCC[C@H]3c3ncco3)C(=O)N(S(=O)(=O)c3ccc(OC)cc3)c3cc(Cl)c(Cl)cc32)c1 (stereo partly drawn) [Example 68, 5,6-Dichloro-1-(4-methoxybenzenesulfonyl)-3-(2-methoxy-5-propylaminomethylphenyl)-3-((S)-2-oxazol-2-yl-pyrrolidin-1-yl)-1,3-dihydroindol-2-one] | 10 to 100 |
| COc1ccc(S(=O)(=O)N2C(=O)C(c3cc(CNC(C)C)ccc3OC)(N3CCC[C@H]3c3ncco3)c3cc(Cl)c(Cl)cc32)cc1 (stereo partly drawn) [Example 70, 5,6-Dichloro-3-[5-(isopropylaminomethyl)-2-methoxyphenyl]-1-(4-methoxybenzenesulfonyl)-3-((S)-2-oxazol-2-yl-pyrrolidin-1-yl)-1,3-dihydroindol-2-one] | 10 to 100 |
| COc1ccc(S(=O)(=O)N2C(=O)C(c3cc(CN4CCN(C)CC4)ccc3OC)(N3CCC[C@H]3c3ncco3)c3cc(Cl)c(Cl)cc32)cc1 (stereo partly drawn) [Example 74, 5,6-Dichloro-1-(4-methoxybenzenesulfonyl)-3-[2-methoxy-5-(4-methylpiperazin-1-ylmethyl)phenyl]-3-((S)-2-oxazol-2-yl-pyrrolidin-1-yl)-1,3-dihydroindol-2-one] | 10 to 100 |
| COc1ccc(S(=O)(=O)N2C(=O)C(c3cc(CN4CCNCC4)ccc3OC)(N3CCC[C@H]3c3ncco3)c3cc(Cl)c(Cl)cc32)cc1 (stereo partly drawn) [Example 75, 5,6-Dichloro-1-(4-methoxybenzenesulfonyl)-3-(2-methoxy-5-piperazin-1-ylmethylphenyl)-3-((S)-2-oxazol-2-yl-pyrrolidin-1-yl)-1,3-dihydroindol-2-one] | 10 to 100 |
| COc1ccc(S(=O)(=O)N2C(=O)C(c3cc(CN4CCCC4)ccc3OC)(N3CCC[C@H]3c3ncco3)c3cc(Cl)c(Cl)cc32)cc1 (stereo partly drawn) [Example 78, 5,6-Dichloro-1-(4-methoxybenzenesulfonyl)-3-(2-methoxy-5-pyrrolidin-1-ylmethylphenyl)-3-((S)-2-oxazol-2-yl-pyrrolidin-1-yl)-1,3-dihydroindol-2-one] | 10 to 100 |
| CCOc1ccc(S(=O)(=O)N2C(=O)C(c3cc(CN4CCN(C)CC4)ccc3OC)(N3CCC[C@H]3c3ncco3)c3cc(Cl)ccc32)cc1 (stereo partly drawn) [Example 80, 5-Chloro-1-(4-ethoxybenzenesulfonyl)-3-[2-methoxy-5-(4-methylpiperazin-1-ylmethyl)phenyl]-3-((S)-2-oxazol-2-yl-pyrrolidin-1-yl)-1,3-dihydroindol-2-one] | 10 to 100 |
| COc1ccc(CN2CCN(C)CC2)cc1C1(N2CCC[C@H]2c2ncco2)C(=O)N(S(=O)(=O)c2ccc(C#N)cc2)c2ccc(Cl)cc21 (stereo partly drawn) [Example 81, 5-Chloro-1-(4-cyanobenzenesulfonyl)-3-[2-methoxy-5-(4-methylpiperazin-1-ylmethyl)phenyl]-3-((S)-2-oxazol-2-yl-pyrrolidin-1-yl)-1,3-dihydroindol-2-one] | 10 to 100 |
| COc1ccc(CN2CCN(C)CC2)cc1C1(N2CCC[C@H]2c2ncco2)C(=O)N(S(=O)(=O)c2ccc(F)cc2)c2ccc(Cl)cc21 (stereo partly drawn) [Example 82, 5-Chloro-1-(4-fluorobenzenesulfonyl)-3-[2-methoxy-5-(4-methylpiperazin-1-ylmethyl)phenyl]-3-((S)-2-oxazol-2-yl-pyrrolidin-1-yl)-1,3-dihydroindol-2-one] | 100 to 1000 |
| COc1ccc(CN2CCN(C)CC2)cc1C1(N2CCC[C@H]2c2ncco2)C(=O)N(S(=O)(=O)c2ccccc2)c2ccc(Cl)cc21 (stereo partly drawn) [Example 84, 1-(Benzenesulfonyl)-5-chloro-3-[2-methoxy-5-(4-methylpiperazin-1-ylmethyl)phenyl]-3-((S)-2-oxazol-2-yl-pyrrolidin-1-yl)-1,3-dihydroindol-2-one] | 100 to 1000 |
| CCc1ccc(S(=O)(=O)N2C(=O)C(c3cc(CN4CCN(C)CC4)ccc3OC)(N3CCC[C@H]3c3ncco3)c3cc(Cl)ccc32)cc1 (stereo partly drawn) [Example 85, 5-Chloro-1-(4-ethylbenzenesulfonyl)-3-[2-methoxy-5-(4-methylpiperazin-1-ylmethyl)phenyl]-3-((S)-2-oxazol-2-yl-pyrrolidin-1-yl)-1,3-dihydroindol-2-one] | 10 to 100 |
| COc1ccc(S(=O)(=O)N2C(=O)C(c3cc(CN4CCN(C)CC4)ccc3OC)(N3CCC[C@H]3c3ncco3)c3cc(Cl)ccc32)c(OC)c1 (stereo partly drawn) [Example 86, 5-Chloro-1-(2,4-dimethoxybenzenesulfonyl)-3-[2-methoxy-5-(4-methylpiperazin-1-ylmethyl)phenyl]-3-((S)-2-oxazol-2-yl-pyrrolidin-1-yl)-1,3-dihydroindol-2-one] | 10 to 100 |
| COc1ccc(S(=O)(=O)N2C(=O)C(c3cc(CN4CCN(C)CC4)ccc3OC)(N3CCC[C@H]3c3ncco3)c3cc(Cl)ccc32)cc1F (stereo partly drawn) [Example 87, 5-Chloro-1-(3-fluoro-4-methoxybenzenesulfonyl)-3-[2-methoxy-5-(4-methylpiperazin-1-ylmethyl)phenyl]-3-((S)-2-oxazol-2-yl-pyrrolidin-1-yl)-1,3-dihydroindol-2-one] | 10 to 100 |
| CCN1CCN(Cc2ccc(OC)c(C3(N4CCC[C@H]4c4ncco4)C(=O)N(S(=O)(=O)c4ccc(OC)cc4)c4ccc(Cl)cc43)c2)CC1 (stereo partly drawn) [Example 88, 5-Chloro-3-[5-(4-ethylpiperazin-1-ylmethyl)-2-methoxyphenyl]-1-(4-methoxybenzenesulfonyl)-3-((S)-2-oxazol-2-yl-pyrrolidin-1-yl)-1,3-dihydroindol-2-one] | < 10 |
| COc1ccc(S(=O)(=O)N2C(=O)C(c3cc(CN4CCN(C(C)C)CC4)ccc3OC)(N3CCC[C@H]3c3ncco3)c3cc(Cl)ccc32)cc1 (stereo partly drawn) [Example 89, 5-Chloro-3-[5-(4-isopropylpiperazin-1-ylmethyl)-2-methoxyphenyl]-1-(4-methoxybenzenesulfonyl)-3-((S)-2-oxazol-2-yl-pyrrolidin-1-yl)-1,3-dihydroindol-2-one] | < 10 |
| COc1ccc(S(=O)(=O)N2C(=O)C(c3cc(CN4CCN(C(C)=O)CC4)ccc3OC)(N3CCC[C@H]3c3ncco3)c3cc(Cl)ccc32)cc1 (stereo partly drawn) [Example 90, 3-[5-(4-Acetylpiperazin-1-ylmethyl)-2-methoxyphenyl]-5-chloro-1-(4-methoxybenzenesulfonyl)-3-((S)-2-oxazol-2-yl-pyrrolidin-1-yl)-1,3-dihydroindol-2-one] | 10 to 100 |
